A short description of experiment [1]: Inhibition of mouse PDL1 in mouse splenocytes assessed as rescue of splenocyte effector function.
Experiment [2] in a line: Inhibition of mouse PDL2 in mouse splenocytes assessed as rescue of splenocyte effector function.

As a reminder, the EC50 is the midpoint of the concentration-response curve. In the case of `C[C@@H](O)[C@H](NC(=O)N[C@@H](CC(N)=O)C(=O)NNC(=O)[C@@H](N)CO)C(=O)O`, the EC50 in experiment [1] is 30 nM; in experiment [2], 40 nM.

The values above are taken from BindingDB's records for doi:10.1021/acs.jmedchem.8b00990 (China Pharmaceutical University, 2019).
